ChEMBL document CHEMBL1149543, “Discovery of inhibitors of the pentein superfamily protein dimethylarginine dimethylaminohydrolase (DDAH), by virtual screening and hit analysis” (Bioorg Med Chem Lett, 2007)

Test: Inhibition of Pseudomonas aeruginosa DDAH

Row | SMILES | IC50 [µM]
1 | O=C(Cn1cc(/C=C2\C(=O)NC(=S)N(c3ccccc3)C2=O)c2ccccc21)NCc1ccco1 | 16.9
2 | O=C(Cn1cc(C=C2C(=O)NC(=S)NC2=O)c2ccccc21)NCc1ccco1 | 6.4
3 | COc1ccc(N2C(=O)/C(=C/c3c[nH]c4ccccc34)C(=O)NC2=S)cc1 | 2
